Results reported in patent publication US10501479B2, “Benzenesulfonyl-asymmetric ureas and medical uses thereof” (HELSINN HEALTHCARE SA, priority 2016, dated 2019).
Where two headings read alike, the source gives them in different places.

How the values were obtained:
[1] = molecular target: T1, recombinant human ghrelin receptor (HEK293/GRLN) (Homo sapiens, UniProt Q92847); assay: Ghrelin inverse agonist potency (EC50) with IP-1 (IP-One HTRF) assay; format: cell-based; conditions: IP-1 assay
T1 construct: expressed in transfected cells
T1 sequence (Q92847 whole entry): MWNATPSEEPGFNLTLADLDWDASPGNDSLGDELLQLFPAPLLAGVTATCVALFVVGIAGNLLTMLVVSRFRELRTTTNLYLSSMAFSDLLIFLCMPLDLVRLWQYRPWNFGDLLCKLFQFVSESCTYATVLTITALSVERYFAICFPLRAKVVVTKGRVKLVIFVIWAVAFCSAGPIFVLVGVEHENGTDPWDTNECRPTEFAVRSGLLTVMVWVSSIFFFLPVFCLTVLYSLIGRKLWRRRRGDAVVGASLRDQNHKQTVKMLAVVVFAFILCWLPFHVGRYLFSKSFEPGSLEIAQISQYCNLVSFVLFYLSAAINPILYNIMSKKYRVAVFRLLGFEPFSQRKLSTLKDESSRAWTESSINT
Procedure, shortened: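 HEK293/GRLN cells were seeded 18-22 hours before the test, then exposed to compound in stimulation buffer for 1 hour at 37° C, 5% CO2. IP-1 was detected by IP-One HTRF (IP1-d2 plus Tb-cryptate, 1 hour RT), reading 620 and 665 nm; the inverse agonist EC50 was derived from this.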

[2] = molecular target: T2, GHSR-1a (HEK293/GHSR1a cell line) (Homo sapiens, UniProt Q92847); assay: Ghrelin antagonist potency (IC50) with calcium FLIPR assay, ghrelin 10 nM; format: cell-based
T2 construct: expressed in transfected cells; host or cells: HEK293/GHSR1a cell line
T2 sequence (Q92847 whole entry): as above
Procedure, shortened: (§1)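 Dye preload 30-60 min, RT or 37° C; compound in DMSO. Agonist mode: compound at t=20 sec, Ca2+ read 2 min. Antagonist mode: compound + ghrelin 10 nM at t=20 sec, 2 min read. EC50/IC50 from dose-response curves.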

[3] = Metabolic stability in human liver microsomes; format: in vitro ADME
Procedure, shortened: (§2)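 Parent compound was measured by LC-MS/MS at 0, 10, 30 and 90 min after NADPH-initiated incubation with liver microsomes at 37 °C. Buffer was 100 mM potassium phosphate, pH 7.4; time-zero concentration was taken before NADPH addition.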

[4] = Metabolic stability in dog liver microsomes; format: in vitro ADME
Description: (§3) Metabolic Stability Study
(§4) The metabolic stability of compounds in human, dog, rat and mouse liver microsomes was performed according the experimental conditions reported below:
(§5) • a) Prepare the following 5 stock solutions: • 1. Test compound stock solutions: dilute 10 mM solution of dextromethorphan (Dtr) in DMSO, 10 mM solution of diphenhydramine (DPA) in DMSO, 10 mM solution of omeprazole (Ome) in DMSO, 10 mM solution of verapamil (Ver) in DMSO, and 10 mM of an inverse agonist compound in DMSO to 0.25 mM solution each with acetonitrile/water (70/30). • 2. Buffer: 100 mM potassium phosphate Buffer (PBS) at pH 7.4 • 3. Liver microsomes (20 mg/ml): Thaw in 37° C. water bath quickly • 4. 2000 μL: of NADPH regenerating system (1.3 mM). Place this system on ice before use:
(§6) • 5. […] The test compound concentration in the wells, measured by LC-MS/MS, represents the concentration at time=0. • f) To determine the test compound concentration when t≠0, pre-incubate the NADPH regenerating system and the incubation plate containing the remaining 320 μL of incubation mixture (microsomes protein and test compound) for 5 minutes at 37° C. • g) Start the incubation reaction by adding 80 μL NADPH regenerating system to each well containing the remaining 320 μL incubation mixture. • h) After 10 min., 30 min., and 90 min. of incubation at 37° C., transfer 100 μL of the incubation mixture (microsomes protein, test compound, and NADPH) into the wells of a stop plate pre-filled with 300 μL of the cold quench solution. Shake well. • i) Centrifuge the stop plate at 5000×g for 10 minutes. Collect and dilute the supernatant 3 times with distilled water. Sample and analyze the test compound concentration for all the wells by LC-MS/MS. Animal PK Studies via i.v. (intravenous), p.o. (orally) and s.c. (subcutaneous) administrations

[5] = Metabolic stability in mouse liver microsomes; format: in vitro ADME
Procedure, shortened: as §2

[6] = Metabolic stability in rat liver microsomes; format: in vitro ADME
Description: as §3, §4, §5, §6

[7] = molecular target: T2, GHSR-1a (HEK293/GHSR1a cell line); assay: Ghrelin agonist potency (EC50) with calcium FLIPR assay; format: cell-based
Procedure, shortened: as §1

[8] = Animal PK study in mouse via i.v., p.o. and s.c. administration; format: in vivo
Description: All treated animals received a single dose of a test compound (either through i.v., p.o., or s.c. administration) according to the regimen shown in the following table:
For oral dose groups, appropriate amount of test compound was prepared in the following formulation carrier: 1% DMSO (increase to 5% maximum if necessary) and 0.5% Methycellulose. Each mouse or rat received by oral gavage 10 mL/kg of the formulation mixture.
For i.v. and s.c dose groups, appropriate amount of test compound was dissolved in 1% DMSO (increase to 5% maximum if necessary), 99% of 20% HP-β-Cyclodextron (w/v). The pH was adjusted accordingly. Each mouse or rat received 5 mL/kg of the formulation mixture. i.v. dose was administered by tail vein injection. Subcutaneous injection was administered over the shoulders, into the loose skin over the neck. At designated time points (e.g., i.v. and s.c.: 0.083, 0.25, 0.5, 1, 2, 4, 8 and 24 hrs; p.o.: 0.25, 0.5, 1, 2, 4, 8 and 24 hrs), systemic samples of blood (50 μL in mouse or 500 μL in rat) were collected by puncture (submandibular vein in mouse or jugular vein in rat) into vacutainers containing EDTA-K2 as anti-coagulant. The blood was centrifuged at 6000 rpm for 8 min at 4° C. to obtain plasma. All plasma samples were stored at −20° C. All plasma samples were added to acetonitrile for protein precipitation and quantitatively analyzed by LC-MS/MS.

[9] = Animal PK study in rat via i.v., p.o. and s.c. administration; format: in vivo; conditions: rat
[10] = HEK293/GRLN, read-out: Activity EC50 (ghrelin inverse agonist potency)
[11] = HEK293/GHSR1a, ghrelin 10 nM, read-out: Activity IC50 (ghrelin antagonist potency)
[12] = inverse agonist potency, read-out: EC50 (Activity)
[13] = ghrelin antagonist potency, read-out: IC50 (Activity)
[14] = HEK293/GHSR1a, read-out: Activity EC50/EMax: EC50 (ghrelin agonist potency)
[15] = ghrelin inverse agonist potency, read-out: Activity EC50
[16] = ghrelin agonist potency, read-out: Activity EC50/EMax
[17] = ghrelin antagonist potency, read-out: Activity IC50

| Structure (SMILES) | EC50 [1, 10] [nM] | IC50 [2, 11] [nM] | Metabolic Stability Study H = human [3] | Metabolic Stability Study D = dog [4] | Metabolic Stability Study M = mouse [5] | EC50 [1, 12] [nM] | Metabolic Stability Study R = rat [6] | EC50 [1, 15] [nM] | EC50 [7, 16] [nM] | IC50 [2, 17] [nM] | other results |
| --- | --- | --- | --- | --- | --- | --- | --- | --- | --- | --- | --- |
| CC(NC(=O)Nc1ccc(S(=O)(=O)Cc2ccc3c(c2)CC(C)N(C)C3)cc1)c1cccc(Cl)c1Cl (centres unmarked) [H1380, 1-(1-(2,3-dichlorophenyl)ethyl)-3-(4-(((2,3-dimethyl-1,2,3,4-tetrahydroisoquinolin-6-yl)methyl)sulfonyl)phenyl)urea] | 0.367 | 2.3 | 137 µL/min/mg | 169.9 µL/min/mg | 66.5 µL/min/mg | – | – | – | – | – | – |
| CC(C)(N)Cc1ccc(CS(=O)(=O)c2ccc(NC(=O)NCc3cccc(Cl)c3Cl)cc2)cc1 [H0996, 1-(4-((4-(2-amino-2-methylpropyl)benzyl)sulfonyl)phenyl)-3-(2,3-dichlorobenzyl)urea] | – | – | 27.5 µL/min/mg | < 10 µL/min/mg | 125.4 µL/min/mg | 64 | 77.8 µL/min/mg | – | – | – | IC50 [2, 13]: 461 nM |
| COc1ccc([C@H](C)NC(=O)Nc2ccc(S(=O)(=O)Nc3ccc(CC(C)(C)N)cc3)cc2)c(Cl)c1Cl [H0937, (S)-N-(4-(2-amino-2-methylpropyl)phenyl)-4-(3-(1-(2,3-dichloro-4-methoxyphenyl)ethyl)ureido) benzenesulfonamide] | – | – | H = <10 M = <10 R = <10 D = <10 μL/min/mg | H = <10 M = <10 R = <10 D = <10 μL/min/mg | H = <10 M = <10 R = <10 D = <10 μL/min/mg | 12.7 | H = <10 M = <10 R = <10 D = <10 μL/min/mg | – | – | – | IC50 [2, 13]: 84 nM |
| CC(NC(=O)Nc1ccc(S(=O)(=O)Cc2nc3c(s2)CN(C)CC3)cc1)c1cccc(Cl)c1Cl (centres unmarked) [H1379, 1-(1-(2,3-dichlorophenyl)ethyl)-3-(4-(((5-methyl-4,5,6,7-tetrahydrothiazolo[5,4-c]pyridin-2-yl)methyl)sulfonyl)phenyl)urea] | 1.43 | 44.3 | 261.6 µL/min/mg | > 500 µL/min/mg | > 500 µL/min/mg | – | – | – | – | – | EC50 [7, 14]: > 30000 nM |
| C[C@H](NC(=O)Nc1ccc(S(=O)(=O)Cc2ccc3c(c2)CCNC3)cc1)c1cccc(Cl)c1Cl [H1027, (S)-1-(1-(2,3-dichlorophenyl)ethyl)-3-(4-(((1,2,3,4-tetrahydroisoquinolin-6-yl)methyl)sulfonyl)phenyl)urea] | – | – | H = <10 M = <10 R = not reported D = not reported μL/min/mg | – | H = <10 M = <10 R = not reported D = not reported μL/min/mg | 1.62 | – | – | – | – | IC50 [2, 13]: 2.5 nM; PK F [8]: F = 0.72 (M); %; PK CLiv ([8]; i.v.): 11.8 mL/min/kg; PK Vdiv ([8]; i.v.): 1.64 L/kg; PK t1/2iv ([8]; i.v.): 1.61 (M); h; PK CLpo ([8]; p.o.): 1428 mL/min/kg; PK Vdpo ([8]; p.o.): 345 (M); L/Kg; PK t1/2po ([8]; p.o.): 2.79 (M); h; PK F [9]: 57.14 (R) %; PK CLiv ([9]; i.v.): 205.7 mL/min/kg; PK Vdiv ([9]; i.v.): 168.2 L/kg; PK t1/2iv ([9]; i.v.): 10.2 (R) h; PK CLpo ([9]; p.o.): 416.3 mL/min/kg; PK Vdpo ([9]; p.o.): 80.4 (R) L/Kg; PK t1/2po ([9]; p.o.): 2.21 (R) h |
| CC(NC(=O)Nc1ccc(S(=O)(=O)Cc2cc(F)c3c(c2)CCN(C)C3)cc1)c1cccc(Cl)c1Cl (centres unmarked) [H1378, 1-(1-(2,3-dichlorophenyl)ethyl)-3-(4-(((8-fluoro-2-methyl-1,2,3,4-tetrahydroisoquinolin-6-yl)methyl)sulfonyl)phenyl)urea] | 1.3 | 19 | 151.7 µL/min/mg | 227.9 µL/min/mg | 245.9 µL/min/mg | – | – | – | – | – | EC50 [7, 14]: > 30000 nM |
| COc1cc(S(=O)(=O)Cc2ccc3c(c2)C(F)CNC3)ccc1NC(=O)N[C@H](C)c1cccc(Cl)c1Cl (stereo partly drawn) [H1543, 1-((R)-1-(2,3-dichlorophenyl)ethyl)-3-(4-(((4-fluoro-1,2,3,4-tetrahydroisoquinolin-6-yl)methyl)sulfonyl)-2-methoxyphenyl)urea] | – | – | 46.8 µL/min/mg | – | – | – | 204.6 µL/min/mg | 12.6 | > 30000 | 15.9 | – |
| CC(NC(=O)Nc1ccc(S(=O)(=O)Cc2ccc3c(c2)CCNC3)cc1C(=O)O)c1ccccc1 (centres unmarked) [H1541, 2-(3-(1-phenylethyl)ureido)-5-(((1,2,3,4-tetrahydroisoquinolin-6-yl)methyl)sulfonyl)benzoic acid] | – | – | H = <10 R = <10 μL/min/mg | – | – | – | H = <10 R = <10 μL/min/mg | 9.7 | > 30000 | 72.3 | – |
| CC(NC(=O)Nc1ccc(S(=O)(=O)Cc2ccc3c(c2)CCNC3)cc1C(=O)O)c1cccc(Cl)c1Cl (centres unmarked) [H1542, 2-(3-(1-(2,3-dichlorophenyl)ethyl)ureido)-5-(((1,2,3,4-tetrahydroisoquinolin-6-yl)methyl)sulfonyl)benzoic acid] | – | – | < 10 µL/min/mg | – | – | – | 13.3 µL/min/mg | 1.9 | > 30000 | 1.69 | – |
| COc1ccccc1C(C)NC(=O)Nc1ccc(S(=O)(=O)Cc2ccc3c(c2)CNC3)cc1 (centres unmarked) [H1382, 1-(4-((isoindolin-5-ylmethyl)sulfonyl)phenyl)-3-(1-(2-methoxyphenyl)ethyl)urea] | 2.68 | 34.3 | 42.4 µL/min/mg | 41.9 µL/min/mg | 43.4 µL/min/mg | – | – | – | – | – | EC50 [7, 14]: > 30000 nM |
| COc1cc(S(=O)(=O)Cc2ccc3c(c2)C(F)CN(C)C3)ccc1NC(=O)N[C@H](C)c1cccc(Cl)c1Cl (stereo partly drawn) [H1544, 1-((R)-1-(2,3-dichlorophenyl)ethyl)-3-(4-(((4-fluoro-2-methyl-1,2,3,4-tetrahydroisoquinolin-6-yl)methyl)sulfonyl)-2-methoxyphenyl)urea] | – | – | 323.3 µL/min/mg | – | – | – | 427.2 µL/min/mg | 9.7 | > 30000 | 40.4 | – |
| C[C@H](NC(=O)Nc1ccc(S(=O)(=O)Cc2ccc3[nH]ccc3c2)cc1)c1cccc(Cl)c1Cl [H1142, (S)-1-(4-(((1H-indol-5-yl)methyl)sulfonyl)phenyl)-3-(1-(2,3-dichlorophenyl)ethyl)urea] | – | – | 114.9 µL/min/mg | – | 151.4 µL/min/mg | 440 | 209.6 µL/min/mg | – | – | – | – |
